What was measured:
[1] = tested on: MCF7; assay: Anticancer activity against human MCF7 cells assessed as reduction in cell viability incubated for 72 hrs by MTT assay; type: functional, cell-based; details: MCF7, 72 h
[2] = tested on: A-431; assay: Anticancer activity against human A-431 cells assessed as reduction in cell viability incubated for 72 hrs by MTT assay; type: functional, cell-based; details: A-431, 72 h
[3] = tested on: SW480; assay: Anticancer activity against human SW480 cells assessed as reduction in cell viability incubated for 72 hrs by MTT assay; type: functional, cell-based; details: SW480, 72 h
[4] = tested on: SK-MEL3; assay: Anticancer activity against human SK-MEL3 cells assessed as reduction in cell viability incubated for 72 hrs by MTT assay; type: functional, cell-based; details: SK-MEL3, 72 h
[5] = tested on: KB; assay: Anticancer activity against human KB cells assessed as reduction in cell viability incubated for 72 hrs by MTT assay; type: functional, cell-based
[6] = tested on: EJ; assay: Anticancer activity against human EJ cells assessed as reduction in cell viability incubated for 72 hrs by MTT assay; type: functional, cell-based
[7] = tested on: HL-60; assay: Anticancer activity against human HL-60 cells assessed as reduction in cell viability incubated for 72 hrs by MTT assay; type: functional, cell-based; details: HL-60, 72 h
[8] = tested on: HeLa; assay: Anticancer activity against human HeLa cells assessed as reduction in cell viability incubated for 72 hrs by MTT assay; type: functional, cell-based
[9] = tested on: A549; assay: Anticancer activity against human A549 cells assessed as reduction in cell viability incubated for 72 hrs by MTT assay; type: functional, cell-based; details: A549, 72 h
[10] = tested on: A549; assay: Antitumor activity against human A549 cells assessed as reduction in cell viability incubated for 4 hrs by MTT assay; type: functional, cell-based; details: A549, 4 h
[11] = tested on: CT26; assay: Antitumor activity against mouse CT26 cells assessed as reduction in cell viability incubated for 4 hrs by MTT assay; type: functional, cell-based; details: CT26, 4 h
[12] = tested on: Panel NCI-60 (60 carcinoma cell lines); assay: Anticancer activity against human Panel NCI-60 (60 carcinoma cell lines) cells assessed as cell growth inhibition incubated for 48 hrs by sulforhodamine B assay; type: functional

## CCn1cc(C(=O)O)c(=O)c2cc(F)c(N3CCNCC3)nc21 [ENOXACIN]
[1]
  IC50: > 128 µM
[2]
  IC50: > 128 µM
[3]
  IC50: > 128 µM
[4]
  IC50: > 128 µM
[5]
  IC50: > 128 µM
[6]
  IC50: > 128 µM

## CCn1cc(C(=O)O)c(=O)c2cc(F)c(N3CCN(C(=N)NS(=O)(=O)c4ccc(C)cc4)CC3)cc21
[7]
  IC50: 0.043 µM
[8]
  IC50: 0.032 µM
[9]
  IC50: 0.071 µM

## CCn1cc(C(=O)O)c(=O)c2cc(F)c(N3CCN(CC(=O)c4ccc(Cl)s4)CC3)nc21
[1]
  IC50: < 10 µM
[2]
  IC50: < 10 µM
[3]
  IC50: < 10 µM
[4]
  IC50: < 10 µM
[5]
  IC50: < 10 µM
[6]
  IC50: < 10 µM

## CCn1cc(C(=O)O)c(=O)c2cc(F)c(N3CCN(C/C(=N/OC)c4ccc(Cl)s4)CC3)cc21
[1]
  IC50: < 10 µM
[2]
  IC50: < 10 µM
[3]
  IC50: < 10 µM
[4]
  IC50: < 10 µM
[5]
  IC50: < 10 µM
[6]
  IC50: < 10 µM

## O=C(O)c1cn(C2CC2)c2cc(N3CCN(CP(c4ccccc4)c4ccccc4)CC3)c(F)cc2c1=O
[10]
  IC50: 150 µM
[11]
  IC50: 150 µM

## O=C(O)c1cn(C2CC2)c2cc(N3CCN(CP(=O)(c4ccccc4)c4ccccc4)CC3)c(F)cc2c1=O
[10]
  IC50: 150 µM
[11]
  IC50: 150 µM

## CCn1cc(C(=O)O)c(=O)c2cc(F)c(N3CCN(CC(=O)c4ccccc4)CC3)cc21
[12]
  GI50: 22 µM

## CCn1cc(C(=O)O)c(=O)c2cc(F)c(N3CCN(S(=O)(=O)c4cccc5ccccc45)CC3)cc21
[12]
  GI50: 2.63 µM

## O=C(CN1CCN(c2cc3c(cc2F)c(=O)c(C(=O)O)cn3C2CC2)CC1)c1ccc(Cl)s1
[1]
  IC50: < 10 µM
[2]
  IC50: < 10 µM
[3]
  IC50: < 10 µM
[4]
  IC50: < 10 µM
[5]
  IC50: < 10 µM
[6]
  IC50: < 10 µM

## O=C(O)c1cn(C2CC2)c2cc(N3CCN(CP(=S)(c4ccccc4)c4ccccc4)CC3)c(F)cc2c1=O
[10]
  IC50: 150 µM
[11]
  IC50: 150 µM

## CCn1cc(C(=O)O)c(=O)c2cc(F)c(N3CCN(C(=N)NS(=O)(=O)c4ccc(Cl)cc4)CC3)cc21
[7]
  IC50: 0.043 µM
[8]
  IC50: 0.032 µM
[9]
  IC50: 0.071 µM

## N=C(NS(=O)(=O)c1ccc(Cl)cc1)N1CCN(c2cc3c(cc2F)c(=O)c(C(=O)O)cn3C2CC2)CC1
[7]
  IC50: 0.043 µM
[8]
  IC50: 0.032 µM
[9]
  IC50: 0.071 µM

## CCn1cc(C(=O)O)c(=O)c2cc(F)c(N3CCN(C(=N)NS(=O)(=O)c4ccccc4Cl)CC3)cc21
[7]
  IC50: 0.043 µM
[8]
  IC50: 0.032 µM
[9]
  IC50: 0.071 µM

## O=C(O)c1cn(C2CC2)c2cc(N3CCN(CP(=[Se])(c4ccccc4)c4ccccc4)CC3)c(F)cc2c1=O
[10]
  IC50: 150 µM
[11]
  IC50: 150 µM

## C#Cc1cccc(Nc2ncnc3cc(OCCOC)c(OCCOC)cc23)c1 [ERLOTINIB]
[12]
  GI50: 7.29 µM

## N=C(NS(=O)(=O)c1cccc(Cl)c1)N1CCN(c2cc3c(cc2F)c(=O)c(C(=O)O)cn3C2CC2)CC1
[7]
  IC50: 0.043 µM
[8]
  IC50: 0.032 µM
[9]
  IC50: 0.071 µM

## N=C(NS(=O)(=O)c1ccccc1C(F)(F)F)N1CCN(c2cc3c(cc2F)c(=O)c(C(=O)O)cn3C2CC2)CC1
[7]
  IC50: 0.043 µM
[8]
  IC50: 0.032 µM
[9]
  IC50: 0.071 µM

## CCn1cc(C(=O)O)c(=O)c2cc(F)c(N3CCN(CC(=O)c4ccc(Cl)s4)CC3)cc21
[1]
  IC50: < 10 µM
[2]
  IC50: < 10 µM
[3]
  IC50: < 10 µM
[4]
  IC50: < 10 µM
[5]
  IC50: < 10 µM
[6]
  IC50: < 10 µM

## CCn1cc(C(=O)O)c(=O)c2cc(F)c(N3CCN(C(=N)NS(=O)(=O)c4cccc(Cl)c4)CC3)cc21
[7]
  IC50: 0.043 µM
[8]
  IC50: 0.032 µM
[9]
  IC50: 0.071 µM

## CCn1cc(C(=O)O)c(=O)c2cc(F)c(N3CCN(CP(=S)(c4ccccc4)c4ccccc4)CC3)cc21
[10]
  IC50: 150 µM
[11]
  IC50: 150 µM

## CCn1cc(C(=O)O)c(=O)c2cc(F)c(N3CCN(S(=O)(=O)c4ccc(Cl)cc4)CC3)cc21
[12]
  GI50: 2.63 µM

## Cc1ccc(S(=O)(=O)NC(=N)N2CCN(c3cc4c(cc3F)c(=O)c(C(=O)O)cn4C3CC3)CC2)cc1
[7]
  IC50: 0.043 µM
[8]
  IC50: 0.032 µM
[9]
  IC50: 0.071 µM

## O=C(O)c1cn(C2CC2)c2cc(N3CCN(C/C(=N/OCc4ccccc4)c4ccc(Cl)s4)CC3)c(F)cc2c1=O
[1]
  IC50: < 10 µM
[2]
  IC50: < 10 µM
[3]
  IC50: < 10 µM
[4]
  IC50: < 10 µM
[5]
  IC50: < 10 µM
[6]
  IC50: < 10 µM

## CCn1cc(C(=O)O)c(=O)c2cc(F)c(N3CCN(CP(=[Se])(c4ccccc4)c4ccccc4)CC3)cc21
[10]
  IC50: 150 µM
[11]
  IC50: 150 µM

## Cc1cc(C)c(S(=O)(=O)N2CCN(c3cc4c(cc3F)c(=O)c(C(=O)O)cn4C3CC3)CC2)c(C)c1
[12]
  GI50: 2.63 µM

## CO/N=C(/CN1CCN(c2cc3c(cc2F)c(=O)c(C(=O)O)cn3C2CC2)CC1)c1ccc(Cl)s1
[1]
  IC50: < 10 µM
[2]
  IC50: < 10 µM
[3]
  IC50: < 10 µM
[4]
  IC50: < 10 µM
[5]
  IC50: < 10 µM
[6]
  IC50: < 10 µM

## N=C(NS(=O)(=O)c1ccccc1)N1CCN(c2cc3c(cc2F)c(=O)c(C(=O)O)cn3C2CC2)CC1
[7]
  IC50: 0.043 µM
[8]
  IC50: 0.032 µM
[9]
  IC50: 0.071 µM

## O=C(O)c1cn(C2CC2)c2cc(N3CCN(S(=O)(=O)c4ccc(Cl)c(Cl)c4)CC3)c(F)cc2c1=O
[12]
  GI50: 2.63 µM

## O=C(O)c1cn(C2CC2)c2cc(N3CCN(C/C(=N/O)c4ccc(Cl)s4)CC3)c(F)cc2c1=O
[1]
  IC50: < 10 µM
[2]
  IC50: < 10 µM
[3]
  IC50: < 10 µM
[4]
  IC50: < 10 µM
[5]
  IC50: < 10 µM
[6]
  IC50: < 10 µM

## COc1ccc(C(=O)CN2CCN(c3cc4c(cc3F)c(=O)c(C(=O)O)cn4-c3ccc(N)cc3F)CC2)cc1
[12]
  GI50: 22 µM

## CCn1cc(C(=O)O)c(=O)c2cc(F)c(N3CCN(S(=O)(=O)c4ccc(Cl)cc4Cl)CC3)cc21
[12]
  GI50: 2.63 µM

## CCn1cc(C(=O)O)c(=O)c2cc(F)c(N3CCN(C/C(=N/OCc4ccccc4)c4ccc(Cl)s4)CC3)cc21
[1]
  IC50: < 10 µM
[2]
  IC50: < 10 µM
[3]
  IC50: < 10 µM
[4]
  IC50: < 10 µM
[5]
  IC50: < 10 µM
[6]
  IC50: < 10 µM

## N=C(NS(=O)(=O)c1ccccc1Cl)N1CCN(c2cc3c(cc2F)c(=O)c(C(=O)O)cn3C2CC2)CC1
[7]
  IC50: 0.043 µM
[8]
  IC50: 0.032 µM
[9]
  IC50: 0.071 µM

## CCn1cc(C(=O)O)c(=O)c2cc(F)c(N3CCN(C/C(=N/OC)c4ccc(Cl)s4)CC3)nc21
[1]
  IC50: < 10 µM
[2]
  IC50: < 10 µM
[3]
  IC50: < 10 µM
[4]
  IC50: < 10 µM
[5]
  IC50: < 10 µM
[6]
  IC50: < 10 µM

## CCn1cc(C(=O)O)c(=O)c2cc(F)c(N3CCN(C(=N)NS(=O)(=O)c4ccccc4C(F)(F)F)CC3)cc21
[7]
  IC50: 0.043 µM
[8]
  IC50: 0.032 µM
[9]
  IC50: 0.071 µM

## CCn1cc(C(=O)O)c(=O)c2cc(F)c(N3CCN(C/C(=N/O)c4ccc(Cl)s4)CC3)cc21
[1]
  IC50: < 10 µM
[2]
  IC50: < 10 µM
[3]
  IC50: < 10 µM
[4]
  IC50: < 10 µM
[5]
  IC50: < 10 µM
[6]
  IC50: < 10 µM

## O=c1[nH]cc(F)c(=O)[nH]1 [FLUOROURACIL]
[12]
  GI50: 22.6 µM

## CCn1cc(C(=O)O)c(=O)c2cc(F)c(N3CCN(C(=N)NS(=O)(=O)c4ccc(C(F)(F)F)cc4)CC3)cc21
[7]
  IC50: 0.043 µM
[8]
  IC50: 0.032 µM
[9]
  IC50: 0.071 µM

## CCn1cc(C(=O)O)c(=O)c2cc(F)c(N3CCN(C(=N)NS(=O)(=O)c4ccccc4)CC3)cc21
[7]
  IC50: 0.043 µM
[8]
  IC50: 0.032 µM
[9]
  IC50: 0.071 µM

## CCn1cc(C(=O)O)c(=O)c2cc(F)c(N3CCN(CC(=O)c4ccc(OC)cc4)CC3)c(F)c21
[12]
  GI50: 22 µM

## N=C(NS(=O)(=O)c1ccc(C(F)(F)F)cc1)N1CCN(c2cc3c(cc2F)c(=O)c(C(=O)O)cn3C2CC2)CC1
[7]
  IC50: 0.043 µM
[8]
  IC50: 0.032 µM
[9]
  IC50: 0.071 µM

## CCn1cc(C(=O)O)c(=O)c2cc(F)c(N3CCN(C/C(=N/O)c4ccc(Cl)s4)CC3)nc21
[1]
  IC50: < 10 µM
[2]
  IC50: < 10 µM
[3]
  IC50: < 10 µM
[4]
  IC50: < 10 µM
[5]
  IC50: < 10 µM
[6]
  IC50: < 10 µM
